Test: logP determination by HPLC on reversed-phase column, acidic range
Assay type: physicochemical
Details: HPLC reversed-phase column (C 18), 43° C., acidic range: 0.1% aqueous phosphoric acid, acetonitrile; marked a)
Source text: (a) Mobile phases for the determination in the acidic range: 0.1% aqueous phosphoric acid, acetonitrile; linear gradient from 10% acetonitrile to 90% acetonitrile—the corresponding measurement results in Table 1 are marked ^a).

logP | Structure (SMILES)
(I-2) logP = 1.31^a) | CCn1nc(C)c(C(=O)c2ccc(Cl)c(NC(=O)N3CCCO3)c2Cl)c1O [Example 186]
(I-2) logP = 1.10^a) | Cc1nn(C)c(O)c1C(=O)c1ccc(Cl)c(NC(=O)N2CCCO2)c1Cl [Example 185]

Same assay, conditions: marked a): acidic range, 0.1% aqueous phosphoric acid, acetonitrile gradient, 43° C.

Structure (SMILES) | logP a)
COC(=O)c1ccc(C(F)(F)F)cc1NC(=O)N1CCN(C)C1=O [IIIa-10] | logP = 2.76^a)
COC(=O)c1ccc(Cl)c(NC(=O)N2CCN(C)CC2)c1Cl [IIIa-8] | logP = 0.50^a)
COC(=O)c1ccc(Cl)c(NC(=O)N2CCOCC2)c1Cl [IIIa-6] | logP = 1.34^a)
COC(=O)c1ccc(C(F)(F)F)cc1NC(=O)N(C)OC [IIIa-9] | logP = 3.35^a)
COC(=O)c1ccc(Cl)c(NC(=O)NN(C)C)c1Cl [IIIa-7] | logP = 1.64^a)

Same assay, conditions: marked a): acidic range, 0.1% aqueous phosphoric acid/acetonitrile gradient, reversed-phase C 18 HPLC, 43° C.

Structure (SMILES) | logP
Cn1ncc(C(=O)c2ccc(Cl)c(NC(=O)N3CCCO3)c2Cl)c1O [Example 161] | (I-2) logP = 1.11^a)
CON(C)C(=O)Nc1cc(C(F)(F)F)ccc1C(=O)c1cnn(C)c1O [Example 8] | (I-1) logP = 2.50^a)
Cn1ncc(C(=O)c2ccc(Cl)c(NC(=O)NN3CCCC3)c2Cl)c1O [Example 16] | (I-2) logP = 1.17^a)
Cn1ncc(C(=O)c2ccc(Cl)c(NC(=O)NN3CCCCC3)c2Cl)c1O [Example 173] | (I-2) logP = 1.70^a)
CCn1nc(C)c(C(=O)c2ccc(Cl)c(NC(=O)N3CCCCO3)c2Cl)c1O [Example 183] | (I-2) logP = 1.53^a)
Cn1ncc(C(=O)c2ccc(Cl)c(NC(=O)N3CCCC3)c2Cl)c1O [Example 24] | (I-2) logP = 1.18^a)
Cc1nn(C)c(O)c1C(=O)c1ccc(Cl)c(NC(=O)N2CCCCO2)c1Cl [Example 184] | (I-2) logP = 1.34^a)
Cn1ncc(C(=O)c2ccc(Cl)c(NC(=O)NN3CCOCC3)c2Cl)c1O [Example 15] | (I-2) logP = 1.03^a)
CCn1ncc(C(=O)c2ccc(NC(=O)N3CCN(C)C3=O)cc2OC)c1O [Example 111] | (I-3) logP = 1.74^a)
Cn1ncc(C(=O)c2ccc(Cl)c(NC(=O)NCC3CCCO3)c2Cl)c1O (stereo not shown) [Example 41] | (I-2) logP = 1.10^a)
CCn1ncc(C(=O)c2ccc(Cl)c(NC(=O)N3CCCN(C4CCCCC4)C3=O)c2Cl)c1O [Example 102] | (I-2) logP = 3.30^a)
Cn1ncc(C(=O)c2ccc(Cl)c(NC(=O)N3CCCCO3)c2Cl)c1O [Example 182] | (I-2) logP = 1.36^a)
CCn1ncc(C(=O)c2ccc(Cl)c(N(C)C(=O)N3CCN(C)C3=O)c2Cl)c1O [Example 99] | (I-2) logP = 1.40^a)
CCn1ncc(C(=O)c2ccc(C(F)(F)F)cc2NC(=O)N2CCN(C)C2=O)c1O [Example 11] | (I-1) logP = 2.42^a)
CCn1ncc(C(=O)c2ccc(C(F)(F)F)cc2N(C)C(=O)N2CCN(C)C2=O)c1O [Example 103] | (I-1) logP = 1.78^a)
Cn1ncc(C(=O)c2ccc(Cl)c(NC(=O)C3=NOCC3)c2Cl)c1O [Example 149] | (I-2) logP = 1.18^a)
CCN1CCCN(C(=O)Nc2c(Cl)ccc(C(=O)c3cnn(C)c3O)c2Cl)C1=O [Example 19] | (I-2) logP = 1.83^a)
CCn1ncc(C(=O)c2ccc(C(F)(F)F)cc2NC(=O)N(C)OC)c1O [Example 7] | (I-1) logP = 2.93^a)
CN1CCN(C(=O)Nc2cc(C(F)(F)F)ccc2C(=O)c2cnn(C)c2O)C1=O [Example 17] | (I-1) logP = 2.12^a)
Cn1ncc(C(=O)c2ccc(Cl)c(NC(=O)N3CCCCC3)c2Cl)c1O [Example 107] | (I-2) logP = 1.50^a)
Cn1ncc(C(=O)c2ccc(Cl)c(NC(=O)Nc3nnc(C(F)(F)F)s3)c2Cl)c1O [Example 47] | (I-2) logP = 1.99^a)
Cn1ncc(C(=O)c2ccc(Cl)c(NC(=O)N3CCOCC3)c2Cl)c1O [Example 10] | (I-2) logP = 0.82^a)

Continued, values first:

logP | Structure (SMILES)
(I-2) logP = 1.13^a) | Cn1ncc(C(=O)c2ccc(Cl)c(NC(=O)N=c3sccn3C)c2Cl)c1O [Example 177]
(I-2) logP = 1.63^a) | CCn1ncc(C(=O)c2ccc(Cl)c(NC(=O)N3CCCCO3)c2Cl)c1O [Example 181]
(I-2) logP = 1.07^a) | CCONC(=O)Nc1c(Cl)ccc(C(=O)c2cnn(C)c2O)c1Cl [Example 127]
(I-2) logP = 1.96^a) | CCn1ncc(C(=O)c2ccc(Cl)c(NC(=O)NN3CCCCC3)c2Cl)c1O [Example 172]
(I-2) logP = 1.38^a) | CCn1ncc(C(=O)c2ccc(Cl)c(NC(=O)N3CCCO3)c2Cl)c1O [Example 162]
(I-2) logP = 1.13^a) | CCn1ncc(C(=O)c2ccc(Cl)c(NC(=O)NCC(OC)OC)c2Cl)c1O [Example 180]
(I-2) logP = 1.06^a) | CCn1ncc(C(=O)c2ccc(Cl)c(NC(=O)NOC)c2Cl)c1O [Example 108]
(I-2) logP = 2.24^a) | CCn1ncc(C(=O)c2ccc(Cl)c(NC(=O)Nc3nnc(C(F)(F)F)s3)c2Cl)c1O [Example 175]
(I-2) logP = 1.72^a) | CCn1ncc(C(=O)c2ccc(Cl)c(NC(=O)N=c3sccn3CC)c2Cl)c1O [Example 179]
(I-2) logP = 1.43^a) | CCn1ccsc1=NC(=O)Nc1c(Cl)ccc(C(=O)c2cnn(C)c2O)c1Cl [Example 178]
(I-2) logP = 1.42^a) | CCn1ncc(C(=O)c2ccc(Cl)c(NC(=O)NN3CCCC3)c2Cl)c1O [Example 100]
(I-2) logP = 2.42^a) | CCn1ncc(C(=O)c2ccc(Cl)c(NC(=O)N3CCCN(C(C)C)C3=O)c2Cl)c1O [Example 101]
(I-2) logP = 1.20^a) | CCn1ncc(C(=O)c2ccc(Cl)c(NC(=O)Nc3nnc(C)o3)c2Cl)c1O [Example 174]
(I-2) logP = 1.25^a) | CCn1ncc(C(=O)c2ccc(Cl)c(NC(=O)NC3CC3)c2Cl)c1O [Example 104]
(I-2) logP = 2.11^a) | CCN1CCCN(C(=O)Nc2c(Cl)ccc(C(=O)c3cnn(CC)c3O)c2Cl)C1=O [Example 18]
(I-2) logP = 1.75^a) | CCn1ncc(C(=O)c2ccc(Cl)c(NC(=O)N3CCCCC3)c2Cl)c1O [Example 106]
(I-2) logP = 1.63^a) | CCN1CCN(C(=O)Nc2c(Cl)ccc(C(=O)c3cnn(C)c3O)c2Cl)C1=O [Example 12]
(I-2) logP = 1.52^a) | CCn1ncc(C(=O)c2ccc(Cl)c(NC(=O)N3CCCC3)c2Cl)c1O [Example 110]
(I-2) logP = 0.72^a) | CONC(=O)Nc1c(Cl)ccc(C(=O)c2cnn(C)c2O)c1Cl [Example 109]
(I-2) logP = 1.54^a) | CCn1ncc(C(=O)c2ccc(Cl)c(NC(=O)c3ccco3)c2Cl)c1O [Example 156]
(I-2) logP = 1.39^a) | CCn1ncc(C(=O)c2ccc(Cl)c(NC(=O)N=c3sccn3C)c2Cl)c1O [Example 176]
(I-2) logP = 1.25^a) | CCn1ncc(C(=O)c2ccc(Cl)c(NC(=O)NN3CCOCC3)c2Cl)c1O [Example 14]
(I-2) logP = 1.45^a) | CCn1ncc(C(=O)c2ccc(Cl)c(NC(=O)C3=NOCC3)c2Cl)c1O [Example 148]
(I-2) logP = 1.86^a) | CCN1CCN(C(=O)Nc2c(Cl)ccc(C(=O)c3cnn(CC)c3O)c2Cl)C1=O [Example 13]
(I-2) logP = 1.33^a) | CCONC(=O)Nc1c(Cl)ccc(C(=O)c2cnn(CC)c2O)c1Cl [Example 128]

Same assay, conditions: reversed-phase C18 HPLC column; pH=2.3

chromatographic logP | Structure (SMILES)
1.35 | CN1CCN(C(=O)Nc2c(Cl)ccc(C(=O)O)c2Cl)C1=O [III-1, 2,4-dichloro-3-[[(3-methyl-2-oxo-1-imidazolidinyl)-carbonyl]-amino]-benzoic acid]

Source: US7635664B2, “Herbicidal substituted benzoylpyrazoles” (Bayer CropScience AG, priority 2001, dated 2009)
